Laboratory results taken from the supplement of paper PMC13380429.

Experiments:
Conditions in all cases: 72 h
Calu-3 [1] = experiment: relative viability EC50 (midpoint between 100% and the lowest measured viability); higher = less toxic
Caco-2 [2] = experiment: as above
Vero E6 [3] = experiment: as above
U2OS [4] = experiment: as above
Calu-3 [5] = experiment: drug sensitivity score (DSS) for viability; higher = more toxic; extreme values may be limits of the assay
Caco-2 [6] = experiment: as above
Vero E6 [7] = experiment: as above
U2OS [8] = experiment: as above
Calu-3 [9] = experiment: cell viability relative to DMSO; higher = less toxic
Caco-2 [10] = experiment: as above
Vero E6 [11] = experiment: as above
U2OS [12] = experiment: as above
HepG2 [13] = experiment: drug sensitivity score (DSS) for viability; higher = more toxic; extreme values may be limits of the assay
HepG2 [14] = experiment: cell viability relative to DMSO; higher = less toxic
HepG2 [15] = experiment: relative viability EC50 (midpoint between 100% and the lowest measured viability); higher = less toxic

SMILES | relative viability EC50 (Calu-3 [1]) [µM] | relative viability EC50 (Caco-2 [2]) [µM] | relative viability EC50 (Vero E6 [3]) [µM] | relative viability EC50 (U2OS [4]) [µM] | drug sensitivity score (Calu-3 [5]) | drug sensitivity score (Caco-2 [6]) | drug sensitivity score (Vero E6 [7]) | drug sensitivity score (U2OS [8]) | cell viability (Calu-3 [9]; 1 nM) [%] | cell viability (Calu-3 [9]; 10 nM) [%] | cell viability (Calu-3 [9]; 100 nM) [%] | cell viability (Calu-3 [9]; 1000 nM) [%] | cell viability (Calu-3 [9]; 10000 nM) [%] | cell viability (Caco-2 [10]; 1 nM) [%] | cell viability (Caco-2 [10]; 10 nM) [%] | cell viability (Caco-2 [10]; 100 nM) [%] | cell viability (Caco-2 [10]; 1000 nM) [%] | cell viability (Caco-2 [10]; 10000 nM) [%] | cell viability (Vero E6 [11]; 1 nM) [%] | cell viability (Vero E6 [11]; 10 nM) [%] | cell viability (Vero E6 [11]; 100 nM) [%] | cell viability (Vero E6 [11]; 1000 nM) [%] | cell viability (Vero E6 [11]; 10000 nM) [%] | cell viability (U2OS [12]; 1 nM) [%] | cell viability (U2OS [12]; 10 nM) [%] | cell viability (U2OS [12]; 100 nM) [%] | cell viability (U2OS [12]; 1000 nM) [%] | cell viability (U2OS [12]; 10000 nM) [%] | drug sensitivity score (HepG2 [13]) | cell viability (HepG2 [14]; 1 nM) [%] | cell viability (HepG2 [14]; 10 nM) [%] | cell viability (HepG2 [14]; 100 nM) [%] | cell viability (HepG2 [14]; 1000 nM) [%] | cell viability (HepG2 [14]; 10000 nM) [%] | relative viability EC50 (HepG2 [15]) [µM]
C[C@]12CC[C@@H](O)C[C@@H]1CC[C@@H]1[C@@H]2CC[C@]2(C)C(c3ccccc3)=CC[C@@H]12 [17-PA] | > 10 | > 10 | > 10 | > 10 | 0 | 0.3 | 0 | 0 | 101 | 106 | 94.2 | 94.7 | 99.8 | 95 | 87.9 | 87.5 | 104 | 82.6 | 98.1 | 89.2 | 99.6 | 93 | 107 | 96.1 | 101 | 96.4 | 103 | 102 |  |  |  |  |  |  | 
CN(c1ccc(NC(=O)Nc2ccccc2)cc1)S(=O)(=O)c1cnn(-c2ccc(F)cc2)c1 [BTT-3033] | > 10 | > 10 |  | > 10 | 0 | 0 |  | 0 | 96.7 | 104 | 97.6 | 97.5 | 106 | 101 | 115 | 96.3 | 109 | 100 |  |  |  |  |  | 104 | 104 | 101 | 111 | 99.8 |  |  |  |  |  |  | 
C[C@@H](N[C@H]1CCCC[C@@H]1NC(=O)c1ccc(Cl)cc1)c1cccc2ccccc12 [Calhex-231] | > 10 | > 10 | > 10 | > 10 | 0.1 | 0 | 0 | 0.3 | 91.9 | 108 | 95.9 | 109 | 85.8 | 104 | 91.7 | 91.6 | 102 | 92.9 | 103 | 104 | 102 | 98.9 | 93.4 | 98.7 | 96.2 | 99.8 | 94.1 | 87.3 | 1.7 | 97.9 | 101 | 95.7 | 97.9 | 68.6 | 
COc1ccc(S(=O)(=O)N(C(C)=O)c2ccccc2/C=C/c2cc[n+]([O-])cc2)cc1 [HMN-214] |  | 0.41 | 0.324 | 0.634 | 5.3 | 8 | 10.7 | 9.8 | 101 | 95 | 105 | 71.5 | 60.4 | 105 | 89.6 | 94.2 | 60.3 | 48.4 | 94.6 | 97.9 | 99.8 | 41.8 | 41 | 97.5 | 95.8 | 96.9 | 51.9 | 29.3 | 11.3 | 98.4 | 105 | 98.1 | 40.3 | 38 | 0.323
Cc1ccc(-c2csc(NC(=O)c3ccccc3)n2)c(C)c1 [INH1] | > 10 | > 10 | > 10 | > 10 | 0 | 0.4 | 0 | 0 | 96.9 | 102 | 101 | 107 | 98.3 | 97.2 | 104 | 96.1 | 91.5 | 85.8 | 102 | 96.8 | 98.4 | 97.5 | 91.1 | 94.7 | 101 | 95.3 | 96.3 | 96.6 | 1.8 | 102 | 104 | 98.8 | 104 | 58.7 | 
CC(=O)NC1=NN(C(C)=O)[C@](C)(c2ccccc2)S1 [K-858] | > 10 |  | 2.63 |  | 0 | 1.1 | 3.7 | 2 | 108 | 93 | 96.3 | 101 | 91.5 | 106 | 102 | 91.3 | 102 | 71 | 103 | 103 | 99 | 96.2 | 42.2 | 97 | 96.5 | 97.6 | 98.3 | 63.9 | 2.9 | 98.8 | 101 | 98.7 | 106 | 39.2 | 3.65
Cc1ccccc1CN1C2=NCCN2C(=O)C2=C1CCN(Cc1ccccc1)C2 [TIC10] | > 10 | > 10 | > 10 |  | 0 | 0 | 0 |  | 98.9 | 99.7 | 98 | 102 | 92.4 | 110 | 106 | 104 | 93.7 | 103 | 107 | 106 | 98.8 | 99.5 | 103 |  |  |  |  |  |  |  |  |  |  |  | 
CC(=O)O[C@H]1CC[C@@]2(C)C(=CC[C@@H]3[C@@H]2CC[C@]2(C)C(c4cccnc4)=CC[C@@H]32)C1 [abiraterone-acetate] | > 10 | > 10 |  | > 10 | 0 | 0 |  | 0 | 98.3 | 102 | 96.6 | 87.8 | 107 | 97.1 | 99.8 | 95.5 | 92.8 | 92.6 |  |  |  |  |  | 101 | 100 | 99.5 | 95.8 | 102 |  |  |  |  |  |  | 
